Reference: US4618687A, “Cyclopentenone compound and process for production thereof” (Kyowa Hakko Kogyo Co., Ltd., priority 1984, dated 1986)
≈ marks a conversion by molar mass, not a printed value.

System: HeLa S3 cells
Assay: Growth inhibitory effect on HeLa cells
Type: cell-based
Conditions: 96 h; for Cell count, average ± standard deviation: three runs, control 732 ± 24
Procedure: Growth inhibitory effect on HeLa cells
Cultured HeLa S3 cells are suspended in an MEM medium (containing 10% bovine fetus serum and 6 mg/100 ml kanamycin) at a concentration of 5×10^4 cells/ml, 1 ml each of the cell suspension is pipetted in 24-hole multi-dishes, and the cells are cultured in a carbon dioxide cultivator with 5% CO2 at 37° C. for 24 hours. Then, 0.1 ml each of drug solutions prepared at predetermined concentrations are added to each dish. Then, the cells are further cultured in the carbon dioxide cultivator for 96 hours. After the culturing, the culture liquor is removed from the dishes, and then 1 ml of PBS [physiological saline solution containing a phosphate buffer (pH 7.2)]is added to the dishes to gently wash the cell surfaces. Then, PBS is removed from the dishes. Then, 1 ml of PBS containing 0.05% trypsin and 0.02% EDTA is added to each dish. The dishes are left standing at room temperature for about 15 minutes. Adhered cells are peeled off, and 0.5 ml of the cell suspension is added to 10 ml of an isotonic solution. Cells are counted by a microcell counter to determine inhibition percent (%) against cell propagation of groups treated with the drug on the basis of the cell count of the control group. Linear expression showing a relationship between the concentration and the inhibition percent are obtained from the inhibition percent of the drug against the cell propagation at the respective concentration according to the least-squares method, and then the drug concentrations IC50 showing a 50% inhibition against the cell propagation are obtained from the linear expression.

`O=C1C=CC2COC(O)CC12` (stereo not drawn) [compound (I), 4-hydroxy-3-oxabicyclo [4.3.0]nona-8-en-7-on] was tested, and the “Cell count, average ± standard deviation” value (1 μg/ml) was 697 ± 58 × 10^3 cells/ml, the “Cell count, average ± standard deviation” value (3 μg/ml) was 784 ± 42 × 10^3 cells/ml and the “Cell count, average ± standard deviation” value (5 μg/ml) was 454 ± 21 × 10^3 cells/ml. The “Cell count, average ± standard deviation” value (10 μg/ml) was 7.1 ± 2.1 × 10^3 cells/ml, the inhibition at 1 µg/mL (Homo sapiens, HeLa S3, 1 μg/ml, read-out: Inhibition percent against cell propagation) was 4.8% and the inhibition at 3 µg/mL (Homo sapiens, HeLa S3, 3 μg/ml, read-out: Inhibition percent against cell propagation) was -7%. For the same molecule, the inhibition at 5 µg/mL (Homo sapiens, HeLa S3, 5 μg/ml, read-out: Inhibition percent against cell propagation) was 38%, the inhibition at 10 µg/mL (Homo sapiens, HeLa S3, 10 μg/ml, read-out: Inhibition percent against cell propagation) was 99% and the IC50 (Homo sapiens, HeLa S3, 50% inhibition against cell propagation, linear least-squares) was 5.73 µg/mL (≈ 37.2 µM).
